Numbered stars: 1 amine (or outer) side, 2 acyl side, 3 side chain; on linkers, the order of the positions; unused ones are H or OH. Bridge positions count the residues as written; N and C are the ends. Square brackets hold non-standard residues; d marks the D form. Side chains are listed from the residue outwards. Peptide text beside a SMILES is read from it. I, II: the chains in the order shown. * marks the point of attachment. C18 diacid = O=C(O)CCCCCCCCCCCCCCCCC(=O)*; γGlu = O=C(O)[C@H](CCC(=O)[*:2])N[*:1]; AEEA = NCCOCCOCC(=O)O; Aib = CC(C)(N)C(=O)O
Target: T1, human glucagon receptor (Homo sapiens, UniProt P47871)
T1 construct: expressed in transfected cells; host or cells: BHK cells (parent BHK570, CRE luciferase clone BHK/KZ10-20-48), clone pLJ6'-4-25
T1 sequence (P47871 26-477): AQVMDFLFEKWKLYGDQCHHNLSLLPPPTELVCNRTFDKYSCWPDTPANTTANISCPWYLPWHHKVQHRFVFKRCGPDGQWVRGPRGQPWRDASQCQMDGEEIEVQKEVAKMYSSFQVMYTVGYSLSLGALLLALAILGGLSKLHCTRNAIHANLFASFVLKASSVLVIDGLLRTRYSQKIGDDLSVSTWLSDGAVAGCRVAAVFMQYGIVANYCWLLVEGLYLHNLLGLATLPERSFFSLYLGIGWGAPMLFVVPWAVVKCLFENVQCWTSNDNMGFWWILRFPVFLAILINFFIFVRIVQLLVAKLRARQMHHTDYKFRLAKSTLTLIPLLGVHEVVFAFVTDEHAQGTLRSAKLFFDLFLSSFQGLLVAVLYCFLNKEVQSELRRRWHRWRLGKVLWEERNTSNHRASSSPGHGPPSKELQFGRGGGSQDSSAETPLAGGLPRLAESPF
Experiment: Glucagon receptor potency, CRE luciferase reporter gene assay in BHK cells
Format: cell-based
Settings: BHK cells expressing human glucagon receptor, read-out: EC50 GlucR
Procedure: The purpose of this example was to test the potency, of the glucagon derivatives of the invention, in vitro. The in vitro potency is the measure of human GLP-1 receptor or glucagon receptor activation, respectively, in a whole cell assay.
In vitro potency was determined by measuring the response of human GLP-1 or glucagon receptor, respectively, in a reporter gene assay. The assay was performed in a stably transfected BHK cell line that expresses either the human GLP-1 receptor or the human glucagon receptor and contains the DNA for the cAMP response element (CRE) coupled to a promoter and the gene for firefly luciferase (CRE luciferase). […] When assay incubation was completed, the luciferase substrate (luciferin) was added and the enzyme converted luciferin to oxyluciferin and produces bioluminescence. The luminescence was measured as the readout for the assay.
The cells used in this assay (clone pLJ6′-4-25) were BHK cells with BHK570 as a parent cell line expressing the CRE luciferase gene (clone BHK/KZ10-20-48) and were established by further transfection with the human glucagon receptor (clone pLJ6′ in pHZ-1 vector).
The cells were cultured at 5% CO2 in DMEM medium with 10% FBS, 1×GlutaMAX, 1 mg/ml G418, 240 nM MTX (methotrexate) and 1% pen/strep (penicillin/streptomycin). They were aliquoted and stored in liquid nitrogen. Before each assay, an aliquot was taken up and washed three times in PBS before being suspended at the desired concentration in assay medium. For 96-well plates the suspension was made to give a final concentration of 5×10EE3 cells/well.
The following chemicals were used in the assay: Pluronic F-68 (10%) (Gibco 2404), ovalbumin (Sigma A5503), DMEM w/o phenol red (Gibco 11880-028), 1 M Hepes (Gibco 15630), Glutamax 100× (Gibco 35050) and steadylite plus (PerkinElmer 6016757).
Assay Medium consisted of DMEM w/o phenol red, 10 mM Hepes, 1× GlutaMAX, 2% Ovalbumin and 0.2% Pluronic F-68.
Cell stocks were thawed in a 37° C. water bath. Cells were washed three times in PBS. The cells were counted and adjusted to 5×10EE3 cells/50 μl (1×10EE5 cells/ml) in Assay Medium. A 50 μl aliquot of cells was transferred to each well in the assay plate.
Stocks of the test compounds and reference compounds were diluted to a concentration of […] in Assay Medium. Compounds were diluted 10-fold to give the following concentrations: 2×10EE-6 M, 2×10EE-7 M, 2×10EE-8 M; 2×10EE-9 M, 2×10EE-10 M, 2×10EE-11 M, 2×10EE-12 M and 2×10EE-13 M. For each compound a blank assay medium control was also included.
A 50 μl aliquot of compound or blank was transferred from the dilution plate to the assay plate. Compounds were tested at the following final concentrations: 1×10EE-6 M, 1×10EE-7 M, 1×10EE-8 M; 1×10EE-9 M, 1×10EE-10 M, 1×10EE-11 M and 1×10EE-12 M and 1×10EE-13 M.
The assay plate was incubated for 3 h in a 5% CO2 incubator at 37° C. The assay plate was removed from the incubator and allowed to stand at room temperature for 15 min. A 100 μl aliquot of steadylite plus reagent was added to each well of the assay plate (reagent is light sensitive). Each assay plate was covered with aluminum foil to protect it from light and shaken for 30 min at room temperature. Each assay plate was read in a Perkin Elmer TopCount NXT instrument.
The data from the TopCount instrument was transferred to GraphPad Prism software. The software performed a non-linear regression (log(agonist) vs response-Variable slope (four parameter)). EC50 values were calculated by the software and reported in pM.

Compound | EC50
CC(C)C[C@H](NC(=O)[C@H](Cc1ccc(O)cc1)NC(=O)[C@H](CCCCN)NC(=O)[C@H](CO)NC(=O)[C@H](CC(C)C)NC(=O)[C@H](CC(=O)O)NC(=O)[C@H](CO)NC(=O)[C@@H](NC(=O)[C@H](Cc1ccccc1)NC(=O)[C@@H](NC(=O)CNC(=O)[C@H](CCC(N)=O)NC(=O)C(C)(C)NC(=O)[C@@H](N)Cc1c[nH]cn1)[C@@H](C)O)[C@@H](C)O)C(=O)N[C@@H](CCC(=O)O)C(=O)N[C@@H](CO)C(=O)N[C@@H](CCCNC(=N)N)C(=O)N[C@@H](CCCNC(=N)N)C(=O)N[C@@H](C)C(=O)N[C@@H](CCCNC(=N)N)C(=O)N[C@@H](CCC(=O)O)C(=O)N[C@@H](Cc1ccccc1)C(=O)N[C@H](C(=O)N[C@@H](CCC(N)=O)C(=O)N[C@@H](Cc1c[nH]c2ccccc12)C(=O)N[C@@H](CC(C)C)C(=O)N[C@@H](CC(C)C)C(=O)N[C@@H](CCCCNC(=O)CC[C@H](NC(=O)CC[C@H](NC(=O)COCCOCCNC(=O)COCCOCCNC(=O)CC[C@H](NC(=O)CCCCCCCCCCCCCCCCC(=O)O)C(=O)O)C(=O)O)C(=O)O)C(=O)N[C@H](C(N)=O)[C@@H](C)O)C(C)C [Example 23, N^ε28-[(4S)-4-carboxy-4-[[(4S)-4-carboxy-4-[[2-[2-[2-[[2-[2-[2-[[(4S)-4-carboxy-4-(17-carboxyheptadecanoylamino)butanoyl]amino]ethoxy]ethoxy]acetyl]amino]ethoxy]ethoxy]acetyl]amino]butanoyl]amino]butanoyl]-[Aib2,Leu10,Glu15,Arg20,Glu21,Leu27,Lys28]-Glucagon amide] (H-H[Aib]QGTFTSDLSKYLESRRAREFVQWLLK([γGlu-γGlu-AEEA-AEEA-γGlu-C18 diacid])T-NH2; N-terminus assumed) | 0.0773 nM
CC(C)C[C@H](NC(=O)[C@H](Cc1ccc(O)cc1)NC(=O)[C@H](CCCCN)NC(=O)[C@H](CO)NC(=O)[C@H](CC(C)C)NC(=O)[C@H](CC(=O)O)NC(=O)[C@H](CO)NC(=O)[C@@H](NC(=O)[C@H](Cc1ccccc1)NC(=O)[C@@H](NC(=O)CNC(=O)[C@H](CCC(N)=O)NC(=O)C(C)(C)NC(=O)[C@@H](N)Cc1c[nH]cn1)[C@@H](C)O)[C@@H](C)O)C(=O)N[C@@H](CCC(=O)O)C(=O)N[C@@H](CO)C(=O)N[C@@H](CCCCN)C(=O)N[C@@H](CCCNC(=N)N)C(=O)N[C@@H](C)C(=O)N[C@@H](CCCNC(=N)N)C(=O)N[C@@H](CCC(=O)O)C(=O)N[C@@H](Cc1ccccc1)C(=O)N[C@H](C(=O)N[C@@H](CCC(N)=O)C(=O)N[C@@H](Cc1c[nH]c2ccccc12)C(=O)N[C@@H](CC(C)C)C(=O)N[C@@H](CC(C)C)C(=O)N[C@@H](CCCCNC(=O)CNC(=O)[C@H](CO)NC(=O)[C@H](CCC(=O)O)NC(=O)CNC(=O)[C@H](CO)NC(=O)CC[C@H](NC(=O)CC[C@H](NC(=O)CCCCCCCCCCCCCCCCC(=O)O)C(=O)O)C(=O)O)C(=O)N[C@H](C(N)=O)[C@@H](C)O)C(C)C [Example 25, N^ε28-[2-[[(2S)-2-[[(2S)-4-carboxy-2-[[2-[[(2S)-2-[[(4S)-4-carboxy-4-[[(4S)-4-carboxy-4-(17-carboxyheptadecanoylamino)butanoyl]amino]butanoyl]amino]-3-hydroxypropanoyl]amino]acetyl]amino]butanoyl]amino]-3-hydroxypropanoyl]amino]acetyl]-[Aib2,Leu10,Glu15,Lys17,Arg20,Glu21,Leu27,Lys28]-Glucagon amide] (I: H-H[Aib]QGTFTSDLSKYLESKRAREFVQWLLKT-NH2 / II: {C18 diacid-γGlu-γGlu}-SGESG; amide I:28-II:C; N-terminus assumed) | 0.0447 nM
CC(C)C[C@H](NC(=O)[C@H](Cc1c[nH]c2ccccc12)NC(=O)[C@H](C)NC(=O)[C@@H](NC(=O)[C@H](Cc1ccccc1)NC(=O)[C@H](CCC(=O)O)NC(=O)[C@H](CCCNC(=N)N)NC(=O)[C@H](C)NC(=O)[C@H](CCCNC(=N)N)NC(=O)[C@H](CCCNC(=N)N)NC(=O)[C@H](CO)NC(=O)[C@H](CCC(=O)O)NC(=O)[C@H](CC(C)C)NC(=O)[C@H](Cc1ccc(O)cc1)NC(=O)[C@H](CCCCN)NC(=O)[C@H](CO)NC(=O)[C@H](CC(C)C)NC(=O)[C@H](CC(=O)O)NC(=O)[C@H](CO)NC(=O)[C@@H](NC(=O)[C@H](Cc1ccccc1)NC(=O)[C@@H](NC(=O)CNC(=O)[C@H](Cc1c[nH]cn1)NC(=O)C(C)(C)NC(=O)[C@@H](N)Cc1c[nH]cn1)[C@@H](C)O)[C@@H](C)O)C(C)C)C(=O)N[C@@H](CC(C)C)C(=O)N[C@@H](CCCCNC(=O)CC[C@H](NC(=O)COCCOCCNC(=O)COCCOCCNC(=O)CC[C@H](NC(=O)CC[C@H](NC(=O)CCCCCCCCCCCCCCCCC(=O)O)C(=O)O)C(=O)O)C(=O)O)C(=O)N[C@H](C(N)=O)[C@@H](C)O [Example 31, N^ε28-[(4S)-4-carboxy-4-[[2-[2-[2-[[2-[2-[2-[[(4S)-4-carboxy-4-[[(4S)-4-carboxy-4-(17-carboxyheptadecanoylamino)butanoyl]amino]butanoyl]amino]ethoxy]ethoxy]acetyl]amino]ethoxy]ethoxy]acetyl]amino]butanoyl]-[Aib2,His3,Leu10,Glu15,Arg20,Glu21,Ala24,Leu27, Lys28]-Glucagon amide] (H-H[Aib]HGTFTSDLSKYLESRRAREFVAWLLK([γGlu-AEEA-AEEA-γGlu-γGlu-C18 diacid])T-NH2; N-terminus assumed) | 0.0029 nM
CC(C)C[C@H](NC(=O)[C@H](Cc1ccc(O)cc1)NC(=O)[C@H](CCCCN)NC(=O)[C@H](CO)NC(=O)[C@H](CC(C)C)NC(=O)[C@H](CC(=O)O)NC(=O)[C@H](CO)NC(=O)[C@@H](NC(=O)[C@H](Cc1ccccc1)NC(=O)[C@@H](NC(=O)CNC(=O)[C@H](Cc1c[nH]cn1)NC(=O)C(C)(C)NC(=O)[C@@H](N)Cc1c[nH]cn1)[C@@H](C)O)[C@@H](C)O)C(=O)N[C@@H](CCC(=O)O)C(=O)N[C@@H](CO)C(=O)N[C@@H](CCCCN)C(=O)N[C@@H](CCCNC(=N)N)C(=O)N[C@@H](C)C(=O)N[C@@H](CCCNC(=N)N)C(=O)N[C@@H](CCC(=O)O)C(=O)N[C@@H](Cc1ccccc1)C(=O)N[C@H](C(=O)N[C@@H](CCC(N)=O)C(=O)N[C@@H](Cc1c[nH]c2ccccc12)C(=O)N[C@@H](CC(C)C)C(=O)N[C@@H](CC(C)C)C(=O)N[C@@H](CCCCNC(=O)CC[C@H](NC(=O)CC[C@H](NC(=O)CC[C@H](NC(=O)CCCCCCCCCCCCCCCCC(=O)O)C(=O)O)C(=O)O)C(=O)O)C(=O)N[C@H](C(N)=O)[C@@H](C)O)C(C)C [Example 34, N^ε28-[(4S)-4-carboxy-4-[[(4S)-4-carboxy-4-[[(4S)-4-carboxy-4-(17-carboxyheptadecanoylamino)butanoyl]amino]butanoyl]amino]butanoyl]-[Aib2,His3,Leu10,Glu15,Lys17,Arg20,Glu21,Leu27,Lys28]-Glucagon amide] (H-H[Aib]HGTFTSDLSKYLESKRAREFVQWLLK([γGlu-γGlu-γGlu-C18 diacid])T-NH2; N-terminus assumed) | 0.0029 nM

From patent US9474790B2, “Stable, protracted GLP-1/glucagon receptor co-agonists for medical use” (Novo Nordisk A/S, priority 2013, dated 2016)
